The values below are quoted from earlier work in patent publication US20160136091A1, “Orally Disintegrating Tablet” (SANWA KAGAKU KENKYUSHO CO., LTD., priority 2013, published 2016).

For the data set the following is noted: 20+5° C.

Each structure is given as a SMILES string.

Turning to `OCCN1C[C@H](O)[C@@H](O)[C@H](O)[C@H]1CO` [miglitol], the “Amount of water required to dissolve 1 g” value was “less than 10 mL”. As for `Cn1c(=O)c2[nH]cnc2n(C)c1=O` [theophylline], the “Amount of water required to dissolve 1 g” value is listed as “less than 1,000 mL”.
